Laboratory results from paper PMC6286256 (Cancer chemotherapy and pharmacology, 2018).

How the values were obtained:
solid tumors = conditions: cited from earlier work
PI3K/mTOR = conditions: cellular assays; cited from earlier work
[1] = tested on: patients with advanced solid tumors; test: Safety and tolerability; type: in vivo, human; conditions: single-agent SDS sachet cohort, all doses, 61 patients
advanced solid tumors = test: Best overall response, all patients; type: in vivo, human; conditions: single agent and combination
[2] = tested on: patients with advanced solid tumors; conditions: single-agent BEZ235, oral once daily, continuous 28-day cycles
[3] = human, in vivo
mTOR = conditions: cellular assays; cited from earlier work

CO[C@H]1C[C@@H]2CC[C@@H](C)[C@@](O)(O2)C(=O)C(=O)N2CCCC[C@H]2C(=O)O[C@H]([C@H](C)C[C@@H]2CC[C@@H](OCCO)[C@H](OC)C2)CC(=O)[C@H](C)/C=C(\C)[C@@H](O)[C@@H](OC)C(=O)[C@H](C)C[C@H](C)/C=C/C=C/C=C/1C [everolimus]
Incidence of stomatitis (solid tumors): 59–71%

Cn1c(=O)n(-c2ccc(C(C)(C)C#N)cc2)c2c3cc(-c4cnc5ccccc5c4)ccc3ncc21 [BEZ235]
concentration at which dual PI3K/mTOR blockade is observed (PI3K/mTOR): ≈ 500 nmol/L
Diarrhea, frequency [1]: 75.4%
Nausea, frequency [1]: 80.3%
Vomiting, frequency [1]: 63.9%
Patients with PR as best overall response (advanced solid tumors; 5 patients): 2.7%
Patients with SD as best overall response (advanced solid tumors; 62 patients): 33.9%
MTD [2]: 1200 mg/day
Bioavailability [3]: low bioavailability
concentration at which mTOR inhibition predominates (mTOR): < 100 nmol/L
